From patent US20240115676A1, “SILICIFIED TUMOR CELL COMPOSITIONS AND METHODS” (UNM Rainforest Innovations, priority 2020, published 2024)

How the values were obtained:
[1] = tested on: dendritic cells (CD11c^+); assay: In vitro activation of dendritic cells (CD40) by silicified tumor cells and doxorubicin-treated cancer cell supernatant; format: cell-based; conditions: supernatant from cancer cells treated with doxorubicin 5 ng/mL or 50 ng/mL, with vaccine
Protocol: Dendritic cells were seeded in 12-well plates at a density of 100,000 cells per well. After 24 hours, supernatant from cancer cells treated with doxorubicin (5 ng/mL or 50 ng/mL) was added, with or without 100,000 silicified tumor cells. Cells were labeled with fluorescent antibodies specific for CD40 and CD11c and analyzed using the Attune Flow Cytometer.

[2] = tested on: BR5-Akt-Luc2 tumors; assay: Cisplatin and vaccine combination therapy in late stage ovarian cancer model; format: in vivo, FVB mice; conditions: cisplatin 2 mg/kg intraperitoneally Day 9, vaccine Day 10 after tumor challenge
Protocol: Tumor-bearing or naïve female FVB mice were vaccinated intraperitoneally with irradiated (100 Gy at […], 15 mA, 48 Gy/min; or a Cs-137 gamma irradiator with a dose rate of 63 cGy/min) or silicified BR5-Akt (or BR5-Akt-Luc2 for vaccine viability analysis) cells (with TLR ligands as indicated) using doses of 3×10^4, 3×10^5, 3×10^6, or 3×10^7 Si-cells/mouse in 200 μl of PBS at the indicated schedules. Alternatively, mice were vaccinated subcutaneously (SC) with 3×10^6 Si-cells by scruffing the skin at the back of their neck and injecting an equivalent volume into the loose fold of skin. Mice that cleared all tumor cells based on IVIS Spectrum bioluminescent imaging were re-challenged with 2×10^5 BR5-Akt-Luc2 cancer cells at a later date, as indicated for each study. All control (no Tx) mice received sham PBS injections (200 μl/mouse). Single agent or combination therapy with cisplatin used IP administration of cis-diamineplatinum (II) dichloride (Sigma-Aldrich, St. Louis, MO) on Day 9 at 2 mg/kg in physiological saline.
For in vivo monitoring of tumor burden, mice with BR5-Akt-Luc2 tumors were administered 150 mg luciferin/kg by intraperitoneal injection, with a 10-minute delay before imaging. Mice were then anesthetized using 2.5% isoflurane, and 2D/3D bioluminescence images were acquired using an in vivo imaging system (XENOGEN IVIS SPECTRUM, PerkinElmer, Inc., Waltham, MA). […]

SMILES	activation of dendritic cells (surface expression of CD40) [1]	survival [2]	tumor burden (bioluminescence) [2]
COc1cccc2c1C(=O)c1c(O)c3c(c(O)c1C2=O)C[C@@](O)(C(=O)CO)C[C@@H]3O[C@H]1C[C@H](N)[C@H](O)[C@H](C)O1 [doxorubicin]	enhanced vaccine-mediated activation of dendritic cells	–	–
N.N.[Cl][Pt][Cl] [Cisplatin, cis-diamineplatinum (II) dichloride]	–	improved survival	reduced tumor burden in some mice
